{"source": "patent US20130064855A1", "about": "“REPROGRAMMING IMMUNE ENVIRONMENT IN BREAST CANCER VIA DENDRITIC CELLS” (BAYLOR RESEARCH INSTITUTE, priority 2011, published 2013)", "key": {"[1]": {"tested_on": "Hs578T breast cancer cells", "assay": "breast tumor growth in tumor bearing humanized mice", "type": "in vivo, NOD/SCID/β2−/− mice", "details": "curdlan (100 ug/ml) co-injected with DCs and T cells at days 3, 6 and 9 post tumor implantation", "description": "Tumor bearing humanized mice: CD34+hematopoietic progenitor cells (HPCs) were obtained from apheresis of adult healthy volunteers mobilized with G-CSF and purified as previously described. The CD34− fraction of apheresis was Ficoll purified, and obtained PBMCs were stored frozen and used as a source of autologous T cells. Three million CD34+HPCs were transplanted intravenously into sublethally irradiated (12 cGy/g body weight of 137Cs γ irradiation) NOD/SCID/β2−/− mice ([…]). After 4 weeks of engraftment 10 million Hs578T breast cancer cells were harvested from cultures and injected subcutaneously into the flanks of the mice. Mice were reconstituted with 10 million CD4+ T cells and 10 million CD8+ T cells autologous to the grafted CD34+ HPCs. CD4+ and CD8+ T cells were positively selected from thawed PBMCs using magnetic selection according to the manufacturer's instructions (Miltenyi Biotec). The purity was routinely >90%. […] Tumor size was monitored every 2-3 d. Tumor volume (ellipsoid) was calculated as follows: [(short diameter)^2×long diameter]/2.\nFIGS. 6A and 6B show NOD/SCID/β2−/− mice sub-lethally irradiated the day before tumor implantation. […] Tumor size was monitored every 2-3 d. Tumor volume (ellipsoid) was calculated as follows: [(short diameter)^2×long diameter]/2. […] Supernatant was harvested and cytokines were detected by Luminex."}, "[2]": {"tested_on": "allogenic naive CD4+ T cells", "assay": "curdlan-treated, tumor supernatant-activated mDCs co-cultured with allogenic naive CD4+ T cells; intracellular cytokines", "type": "cell-based, human", "details": "mDCs pre-treated with 100 ug/ml curdlan, MDA-MB231 supernatant 48 hrs, co-culture one week", "description": "After one week, cells were collected and re-stimulated for intracellular cytokines analysis. The analysis of different studies showing the effect of curdlan treatment in the induction of TNFa+IL-13+ secreting cells is shown in FIG. 5 B."}, "[3]": {"tested_on": "myeloid dendritic cells (mDCs)", "assay": "mDCs pre-treated with curdlan and cultured with breast tumor derived products; phenotype staining and cytokine in supernatant", "type": "cell-based, human", "description": "Isolation and culture of myeloid dendritic cells: DCs were purified from buffy coat of blood from healthy donors. Briefly, DCs were enriched from mononuclear cells by negative selection using a mixture of antibodies against lineage markers for CD3, CD14, CD16, CD19, CD56 and glycophorin A (Dynabeads® Human DC Enrichment Kit, Invitrogen). Cells from negative fraction were immuno-labeled with anti-human FITC-labeled lineage cocktail (CD3, CD14, CD16, CD19, CD20 and CD56, BD biosciences Cat. 340546); PE-labeled CD123 (mIgG1, clone 9F5, BD biosciences Cat. 340545), QR-labeled HLA-DR (mIgG2a, clone HK14, Sigma-Aldrich Cat. R8144) and APC-labeled CD11c (mIgG2b, clone S—HCL-3, BD biosciences Cat. 340544). DCs (lin^−, CD123^−, HLA-DR^+, CD11c^+) were sorted in a FACS Aria cytometer (BD Bioscience). DCs were seeded at 100×10^3 cells/well in 200 μl of medium (RPMI supplemented with glutamine 2 mM, penicillin 50 U/ml, streptomycin 50 μg/ml, MEM non-essential amino acids 0.1 mM, HEPES buffer 10 mM, sodium pyruvate 0.1 mM and 10% of human AB serum). DCs were cultured with medium alone or in the presence of 20 ng/ml of TSLP, or different tumor derived products. After 48 hrs DCs were harvested and washed. The stimulated cells were stained for phenotype analysis or co-culture with allogeneic naïve CD4 T cells.\nTumor factors preparation: Tumor factors were obtained from supernatant of HS578T cells cultured in vitro or by sonication from tumor cell lines, human breast tumor tissue or tumors from humanized mice. Briefly, cell lines were culture in medium (RPMI supplemented with glutamine 2 mM, penicillin 50 U/ml, streptomycin 50 μg/ml, MEM non-essential amino acids 0.1 mM, HEPES buffer 10 mM, sodium pyruvate 0.1 mM and 10% of fetal calf serum), and when the cells reached 90% of confluence fresh medium was added and left the cells in culture for additional 48 hrs. For sonication cells or tissues were placed in PBS and were disrupted during 30 seconds at 4° C., with the power output adjusted at 4.5 level of the 60 sonic dismembrator (Fisher Scientific). Cellular debris were removed by centrifugation and the supernatant was collected and stored at −80° C.\nThe present inventors believe that DC activators can modulate the functions of DCs and reprogram the immune microenvironment (FIG. 4 A). FIGS. 4B, 4C and 4D show the results when DCs were purified from buffy coat of blood from healthy donors. DCs were cultured with medium alone or in the presence of tumor derived products (FIG. 4B). The curdlan treatment is 3 min at room temperature prior to adding tumor supernatant. After 48 hrs, DCs were harvested and washed. The stimulated cells were staining for phenotype (OX40L, pSTAT4 and pSTAT6). The supernatant of DC culture was used for cytokine (IL-12p70) examination (FIGS. 4C and 4D)."}, "[4]": {"tested_on": "CD8+ T cells", "assay": "curdlan-treated, tumor supernatant-activated mDCs co-cultured with allogenic naive total T cells; CD103 staining", "type": "cell-based, human", "details": "mDCs pre-treated with 100 ug/ml curdlan, MDA-MB231 supernatant 48 hrs, co-culture one week", "procedure": "Sorted mDCs (HLA-DR+/CD11c+/CD123−/Lin−) were pre-treated with 100 ug/ml curdlan and activated by supernatant of a breast cancer cell line (MDA-MB231) for 48 hrs and then co-culture with allogenic naive total T cells (FIG. 7A). After one week, cells were collected and stained with intraepithelial marker, CD 103, together with granzymeA and granzymeB staining CD8+ T cells were sorted from in vitro culture and intratumoral inject into NOD-SCID mice. After 3 days, tumors were harvested and digested with collagenase (FIG. 7B)."}, "[5]": {"details": "curdlan treatment prior to tumor supernatant, 48 hrs"}}, "note": "“Also recorded” adds a separate entry of the source.", "data": [{"substance": "β-glucan", "values": [{"measurement": "breast tumor growth / development", "setting": "[1]", "value": "blocks breast tumor growth; also recorded: can inhibit breast tumor development; also recorded: inhibited breast tumor development"}, {"measurement": "expansion of TNFα and IL-13-producing CD4+ T cells (inflammatory Th2 phenotype)", "setting": "[2]", "value": "can be inhibited; also recorded: do not expand TNFα and IL-13-producing CD4+ T cells; also recorded: non-expansion of TNFα and IL-13-producing CD4+ T cells"}, {"measurement": "OX40L expression on mDCs (TSLP-mediated OX40L induction)", "setting": "[3]; [5]", "value": "inhibition of TSLP-mediated OX40L induction; also recorded: can block OX40L expression"}, {"measurement": "pSTAT4/pSTAT6 ratio in mDCs", "setting": "[3]; [5]", "value": "pSTAT4/pSTAT6 ratio increase"}, {"measurement": "IL-12p70 secretion by mDCs", "setting": "[3]; mDCs activated by breast tumor supernatant, DC culture supernatant, 48 hrs", "value": "induction of IL-12p70 secretion; also recorded: secrete higher levels of IL-12p70; also recorded: secretion of high levels of IL-12p70"}, {"measurement": "STAT6 phosphorylation in mDCs", "setting": "[3]; tumor associated mDCs", "value": "blocking STAT6 phosphorylation; also recorded: block in STATE phosphorylation"}, {"measurement": "expansion of CD8+ T cells expressing CD103", "setting": "[4]", "value": "expand CD8+ T cells expressing CD103"}]}]}
